The subject of data set [1] is Moloney murine sarcoma virus. Kind of data set: Antiviral activity against Moloney murine sarcoma virus infected in murine C3H/3T3 embryo fibroblasts assessed as inhibition of virus-induced transformation incubated for 6 days by microscopic analysis. The data set is classed as functional, organism-based.
Data set [2] relates to Human immunodeficiency virus. Put plainly: Antiviral activity against HIV infected in human CEM cells assessed as inhibition of virus induced cytopathicity incubated for 4 days by microscopic analysis. The data set is classed as functional, organism-based. The following applies: ccrf-cem.
For data set [3], the system named is Human alphaherpesvirus 3. Put plainly: Antiviral activity against thymidine kinase deficient Varicella zoster virus 07-1 infected in human HEL cells assessed as reduction in plaque formation measured after 5 days. The data set is classed as functional, organism-based. The settings on record: Human alphaherpesvirus 3, 07-1, HEL, 120 h.
For data set [4], the system named is Cytomegalovirus. Put plainly: Antiviral activity against Cytomegalovirus AD169 infected in human HEL cells assessed as reduction in virus-induced cytopathogenicity measured after 6 to 7 days. In kind it is functional, organism-based. The settings on record: Human betaherpesvirus 5, AD169, HEL. Background: Cytopathic effects are the visible damage that an infection or toxin causes in cultured cells.

The nature of data set [5]: Cytotoxicity against human HEL cells assessed as minimum cytotoxic concentration for change in cellular morphology incubated for 3 days by microscopic analysis. The data set is classed as cell-based.
The test system of data set [6] is Human alphaherpesvirus 3. Kind of data set: Antiviral activity against thymidine kinase positive Varicella zoster virus OKA infected in human HEL cells assessed as reduction in plaque formation measured after 5 days. In kind it is functional, organism-based. The settings on record: Human alphaherpesvirus 3, OKA, 120 h.
Data set [7] relates to Cytomegalovirus. Put plainly: Antiviral activity against Cytomegalovirus Davis infected in human HEL cells assessed as reduction in virus-induced cytopathogenicity measured after 6 to 7 days. The data set is classed as functional, organism-based. The following applies: Human betaherpesvirus 5, Davis.
The nature of data set [8]: Cytotoxicity against human HEL cells assessed as reduction in cell proliferation incubated for 3 days by Coulter counter method. In kind it is cell-based.
The nature of data set [9]: Selectivity index, ratio of CC50 for human HEL cells to EC50 for antiviral activity against Cytomegalovirus AD169 infected in human HEL cells. The following applies: read-out: Ratio CC50/EC50. The data set is classed as toxicity, cell-based.
The nature of data set [10]: Selectivity index, ratio of CC50 for human HEL cells to EC50 for antiviral activity against Cytomegalovirus Davis infected in human HEL cells. The data set is classed as toxicity, cell-based. The settings on record: read-out: Ratio CC50/EC50.
Data set [11] can be described thus: Selectivity index, ratio of CC50 for human HEL cells to EC50 for antiviral activity against thymidine kinase positive Varicella zoster virus OKA infected in human HEL cells. In kind it is toxicity, cell-based. The following applies: read-out: Ratio CC50/EC50.
Data set [12] deals with Hepatitis B virus. Kind of data set: Antiviral activity against Hepatitis B virus ayw1 infected in human HepG2.2.15 cells assessed as reduction in virus DNA replication measured after 6 days by qRT-PCR analysis. The settings on record: ayw1, HepG2 2.2.15, 144 h. The data set is classed as functional, organism-based. A general note: Real-time PCR tracks product formation cycle by cycle.

The nature of data set [13]: Selectivity index, ratio of CC50 for human HEL cells to EC50 for antiviral activity against thymidine kinase deficient Varicella zoster virus 07-1 infected in human HEL cells. In kind it is toxicity, cell-based. The settings on record: read-out: Ratio CC50/EC50.

The source of these data is ChEMBL document CHEMBL4619792, “Amidate Prodrugs of O-2-Alkylated Pyrimidine Acyclic Nucleosides Display Potent Anti-Herpesvirus Activity” (ACS Med Chem Lett, 2020).

For `Cc1c(N)nc(N)nc1OCCOCP(=O)(O)O`, the concentration giving a half-maximal response (EC50) in data set [1] and in data set [2] was 0.16 to 0.43 µM in each case.

With `CCCCOC(=O)[C@@H](NP(=O)(COC(C)COc1nccc(N)n1)Oc1ccccc1)C(C)C` (some centres undefined), the EC50 in [3], in [4], in data set [6] and in [7] was more than 100 µM in each case. Besides, the MCC at 72 h in [5] is more than 100 µM.

On to `Nc1ccnc(OC[C@H](CF)OCP(=O)(O)O)n1`, for which the concentration for a half-maximal effect (EC50) (usually the concentration at which the effect is half-maximal) in data set [3] is 25.3 µM; in data set [4], 2.36 µM; in data set [6], 3.79 µM; in data set [7], 0.8 µM. For the same compound, the CC50 – broadly, the concentration giving 50% cytotoxicity – at 72 h in data set [8] is more than 100 µM. The MCC at 72 h in data set [5] is more than 100 µM.

As to `CCCCCOC(=O)[C@@H](NP(=O)(CO[C@H](CF)COc1nccc(N)n1)Oc1ccccc1)C(C)C` (mixture of isomers), the EC50 in data set [3] was 35.9 µM; in data set [4], more than 100 µM; in data set [6] it was 38.6 µM; in data set [7], 7.61 µM. For the same compound, the MCC at 72 h in [5] is more than 100 µM.

Take `Nc1ccnc(OC[C@@H](CF)OCP(=O)(O)O)n1` (mixture of isomers): the EC50 in data set [3], in [4], in data set [6] and in [7] was more than 100 µM throughout. Also, in data set [8], the CC50 at 72 h is more than 100 µM. Further, the MCC at 72 h in [5] was more than 100 µM.

For the compound `CCCCCOC(=O)[C@@H](NP(=O)(CO[C@@H](C)COc1ncc(F)c(N)n1)Oc1ccccc1)C(C)C` (mixture of isomers), the EC50 in data set [3], in data set [4], in [6] and in data set [7] was more than 100 µM in each case. Moreover, the MCC at 72 h in data set [5] was more than 100 µM.

Regarding `CCCCCOC(=O)[C@@H](NP1(=O)CO[C@@H](COc2nccc(N)n2)CO1)C(C)C` (mixture of isomers), the half-maximal effective concentration (EC50) in data set [3], in data set [4], in data set [6] and in [7] was more than 100 µM each time. In addition, the MCC at 72 h in data set [5] is more than 100 µM.

In the case of `CCCCCOC(=O)[C@@H](NP(=O)(CO[C@@H](CF)COc1nccc(N)n1)Oc1ccccc1)C(C)C` (mixture of isomers), the EC50 in data set [3] is 0.18 µM; in [4], 0.26 µM; in data set [6], 0.36 µM; in data set [7] it was 0.097 µM; in data set [12], 2.1 to 8.71 µM. Besides, the selectivity ratio in data set [9], in data set [10], in data set [11] and in [13] was 220 to 818 each time. Also, the 50% cytotoxic concentration (CC50) at 72 h in [8] was found to be 79.3 µM. Besides, in [5], the MCC at 72 h is more than 100 µM.

Regarding `CCCCCOC(=O)C[C@H](NP(=O)(CO[C@@H](CF)COc1nccc(N)n1)Oc1ccccc1)C(=O)OCCCCC` (mixture of isomers), the EC50 in data set [3] is 0.098 µM; in data set [4] it was 0.54 µM; in [6] it was 0.36 µM; in data set [7] it was 0.094 µM; in data set [12] it was 2.1 to 8.71 µM. Moreover, the selectivity ratio in data set [9], in [10], in data set [11] and in data set [13] was 96 to 551 in each case. Besides, the CC50 at 72 h in data set [8] is 51.8 µM. In addition, the MCC at 72 h in data set [5] is more than 100 µM.

With `CCCCCOC(=O)[C@@H](NP(=O)(CO[C@H](C)COc1ncc(F)c(N)n1)Oc1ccccc1)C(C)C` (mixture of isomers), the concentration for a half-maximal effect (EC50) in data set [3], in [4], in data set [6] and in data set [7] was more than 100 µM throughout. The MCC at 72 h in [5] is more than 100 µM.

In the case of `CCCCCOC(=O)[C@@H](NP(=O)(CO[C@@H](CF)COc1ncc(F)c(N)n1)Oc1ccccc1)C(C)C` (mixture of isomers), the 50% effective concentration (EC50) is 2.94 µM in data set [3]; 11.2 µM in data set [4]; 6.73 µM in data set [6]; 4.7 µM in [7]; 2.1 to 8.71 µM in data set [12]. Besides, in data set [8], the CC50 at 72 h was more than 100 µM. Further, in data set [5], the MCC at 72 h is more than 100 µM.

Take `CCCCCOC(=O)[C@@H](NP1(=O)CO[C@H](COc2nccc(N)n2)CO1)C(C)C` (mixture of isomers): the 50% effective concentration (EC50) in data set [3] came to 35.7 µM; in data set [4] it was 14 µM; in data set [6], 53.6 µM; in data set [7], 4.76 µM. Also, the 50% cytotoxic concentration (CC50) at 72 h in [8] was more than 100 µM. Also, the MCC at 72 h in data set [5] was more than 100 µM.

Consider `CCCCCOC(=O)C[C@H](NP(=O)(CO[C@H](CF)COc1nccc(N)n1)Oc1ccccc1)C(=O)OCCCCC` (mixture of isomers), for which the half-maximal effective concentration (EC50) in [3] stood at 24.7 µM; in data set [4] it was 62.8 µM; in [6], 38.2 µM; in data set [7] it was 48.2 µM. Also, in data set [8], the 50% cytotoxic concentration (CC50) at 72 h was more than 100 µM. The MCC at 72 h in [5] is more than 100 µM.

As to `CCCCCOC(=O)[C@@H](NP(=O)(CO[C@H](C)COc1nccc(N)n1)Oc1ccccc1)C(C)C` (mixture of isomers), the concentration giving a half-maximal response (EC50) in [3], in data set [4], in [6] and in data set [7] was more than 100 µM each time. Further, the MCC at 72 h in [5] was more than 100 µM.

As for `CCCCCOC(=O)[C@@H](NP1(=O)CO[C@H](COc2ncc(F)c(N)n2)CO1)C(C)C` (mixture of isomers), the concentration giving a half-maximal response (EC50) in data set [3], in data set [4], in [6] and in [7] was more than 100 µM throughout. Besides, the MCC at 72 h in [5] was more than 100 µM.

With `CCCCCOC(=O)[C@@H](NP(=O)(CO[C@@H](C)COc1nccc(N)n1)Oc1ccccc1)C(C)C` (mixture of isomers), the concentration giving a half-maximal response (EC50) in data set [3], in data set [4], in data set [6] and in data set [7] was more than 100 µM in each case. Also, in data set [5], the MCC at 72 h is more than 100 µM.

Take `CCCCCOC(=O)[C@@H](NP(=O)(CO[C@H](CF)COc1ncc(F)c(N)n1)Oc1ccccc1)C(C)C` (mixture of isomers): the concentration for a half-maximal effect (EC50) in data set [3], in data set [4], in data set [6] and in [7] was more than 100 µM in each case. Besides, the MCC at 72 h in [5] is more than 100 µM.

Take `CCCCCOC(=O)[C@@H](NP1(=O)CO[C@@H](COc2ncc(F)c(N)n2)CO1)C(C)C` (mixture of isomers): the 50% effective concentration (EC50) in data set [3], in data set [4], in [6] and in data set [7] was more than 100 µM in each case. Further, in [5], the MCC at 72 h is more than 100 µM.

For the compound `Nc1nc2c(ncn2COCCO)c(=O)[nH]1` [ACYCLOVIR], the CC50 at 72 h in [8] was more than 444 µM. Besides, the MCC at 72 h in [5] is more than 444 µM.

Turning to `O=c1[nH]c(=O)n([C@H]2C[C@H](O)[C@@H](CO)O2)cc1/C=C/Br` [BRIVUDINE], the EC50 in [3] is 0.18 µM; in data set [6] it was 0.089 µM. Also, the cytotoxic concentration (CC50) at 72 h in [8] is more than 300 µM. The MCC at 72 h in [5] is more than 300 µM.

As for `Nc1ccn(C[C@@H](CO)OCP(=O)(O)O)c(=O)n1` [CIDOFOVIR], in [8], the CC50 at 72 h is more than 317 µM. Besides, the EC50 in data set [4] is 1.74 µM; in data set [7], 0.94 µM. Further, the MCC at 72 h in [5] is more than 317 µM.

As for `Nc1nc2c(ncn2COC(CO)CO)c(=O)[nH]1` [GANCICLOVIR], the CC50 at 72 h in data set [8] is more than 394 µM. Moreover, the results for the half-maximal effective concentration (EC50) in data set [4] and in data set [7] were 13 µM and 4.44 µM, respectively. In addition, the MCC at 72 h in [5] was more than 394 µM.
